Results on six compounds are retold here after patent US9144539B2, “Methioninase inhibitor and composition and food or drink containing the same” (Lotte Co., Ltd., priority 2006, dated 2015).

The target of this test is T1, methioninase (Fusobacterium nucleatum subsp. nucleatum, UniProt Q8RDT4).
T1 construct: disrupted by sonication to obtain the enzyme; endogenous in cells; host or cells: Fusobacterium nucleatum JCM 8532, sonicated cell lysate (unpurified)
T1 sequence (Q8RDT4 1-395): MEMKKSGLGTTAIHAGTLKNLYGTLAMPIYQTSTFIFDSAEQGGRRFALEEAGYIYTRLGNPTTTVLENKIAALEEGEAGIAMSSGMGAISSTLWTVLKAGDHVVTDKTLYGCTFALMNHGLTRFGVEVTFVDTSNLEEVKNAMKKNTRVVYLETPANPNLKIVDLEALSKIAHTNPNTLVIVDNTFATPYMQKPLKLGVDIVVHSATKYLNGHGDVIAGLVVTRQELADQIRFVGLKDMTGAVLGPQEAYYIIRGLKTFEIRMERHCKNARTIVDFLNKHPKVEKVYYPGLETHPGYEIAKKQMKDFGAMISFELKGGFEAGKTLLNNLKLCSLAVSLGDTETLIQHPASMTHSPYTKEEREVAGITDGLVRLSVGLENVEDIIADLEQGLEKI
The test is described as follows: Cell-free methioninase inhibition test (α-ketobutyrate production from methionine). In kind it is biochemical. Conditions: cell-free enzyme from sonicated bacteria; read-out: IC50 against methioninase (converted).
The IC50 is the concentration that inhibits the measured activity by half. On to `CC(C)=CC/C=C(\C)C1Cc2cc(C(=O)O)cc(CC=C(C)C)c2O1` (stereo not drawn) [Myrsinoic acid F, myrsinoic acid F], for which the IC50 is 8.81 µM.
In the case of `CC(C)=CCC/C(C)=C/Cc1cc(C(=O)O)cc(C/C=C(\C)CCC=C(C)C)c1O` [Myrsinoic acid E (Synthesized), Myrsinoic acid E], the IC50 was 12.2 µM.
For the compound `CC(C)=CCC/C(C)=C/Cc1cc(C(=O)O)cc(C/C=C(\C)CCC=C(C)C)c1O` [Myrsinoic acid E, myrsinoic acid E], the IC50 is 12.2 µM.
With `CC(C)=CCC[C@]1(C)Oc2c(CC=C(C)C)cc(C(=O)O)cc2C[C@@H]1O` [Myrsinoic acid C, myrsinoic acid C], the IC50 is 13.9 µM.
In the case of `CC(C)=CCCC(C)(O)C1Cc2cc(C(=O)O)cc(CC=C(C)C)c2O1` (stereo not drawn) [Myrsinoic acid B, myrsinoic acid B], the IC50 is 11.2 µM.
As to `CC(C)=CCC/C(C)=C/Cc1cc(C(=O)O)cc(CC=C(C)C)c1O` [Myrsinoic acid A, myrsinoic acid A], the IC50 was 14.6 µM.
